# Measurements: PubChem BioAssay (NCI)
#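 All cell lines were grown in 96-well plates and treated with compound for 48 hours. TGI: total growth inhibition.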
# Tests used:
# Assay in all cases: NCI tumour cell line growth inhibition, 48 h
# 786-0 renal = test system: 786-0 renal
# A498 renal = test system: A498 renal
# A549 NSCLC = test system: A549 NSCLC
# ACHN renal = test system: ACHN renal
# BT-549 breast = test system: BT-549 breast
# CAKI-1 renal = test system: CAKI-1 renal
# CCRF-CEM leukemia = test system: CCRF-CEM leukemia
# COLO 205 colon = test system: COLO 205 colon
# DU-145 prostate = test system: DU-145 prostate
# EKVX NSCLC = test system: EKVX NSCLC
# HCC-2998 colon = test system: HCC-2998 colon
# HCT-116 colon = test system: HCT-116 colon
# HCT-15 colon = test system: HCT-15 colon
# HL-60(TB) leukemia = test system: HL-60(TB) leukemia
# HOP-62 NSCLC = test system: HOP-62 NSCLC
# HS 578T breast = test system: HS 578T breast
# HT29 colon = test system: HT29 colon
# K-562 leukemia = test system: K-562 leukemia
# KM12 colon = test system: KM12 colon
# LOX IMVI melanoma = test system: LOX IMVI melanoma
# M14 melanoma = test system: M14 melanoma
# MALME-3M melanoma = test system: MALME-3M melanoma
# MCF7 breast = test system: MCF7 breast
# MDA-MB-231 breast = test system: MDA-MB-231 breast
# MDA-MB-435 = test system: MDA-MB-435
# MDA-N = test system: MDA-N
# MOLT-4 leukemia = test system: MOLT-4 leukemia
# NCI-H226 lung = test system: NCI-H226 lung
# NCI-H23 lung = test system: NCI-H23 lung
# NCI-H460 lung = test system: NCI-H460 lung
# NCI-H522 lung = test system: NCI-H522 lung
# OVCAR-3 ovarian = test system: OVCAR-3 ovarian
# OVCAR-4 ovarian = test system: OVCAR-4 ovarian
# OVCAR-5 ovarian = test system: OVCAR-5 ovarian
# OVCAR-8 ovarian = test system: OVCAR-8 ovarian
# PC-3 prostate = test system: PC-3 prostate
# RPMI-8226 leukemia = test system: RPMI-8226 leukemia
# SF-268 CNS = test system: SF-268 CNS
# SF-295 CNS = test system: SF-295 CNS
# SF-539 CNS = test system: SF-539 CNS
# SK-MEL-2 melanoma = test system: SK-MEL-2 melanoma
# SK-MEL-28 melanoma = test system: SK-MEL-28 melanoma
# SK-MEL-5 melanoma = test system: SK-MEL-5 melanoma
# SK-OV-3 ovarian = test system: SK-OV-3 ovarian
# SN12C renal = test system: SN12C renal
# SNB-19 CNS = test system: SNB-19 CNS
# SNB-75 CNS = test system: SNB-75 CNS
# SR leukemia = test system: SR leukemia
# SW-620 colon = test system: SW-620 colon
# T-47D breast = test system: T-47D breast
# TK-10 renal = test system: TK-10 renal
# U251 CNS = test system: U251 CNS
# UACC-257 melanoma = test system: UACC-257 melanoma
# UACC-62 melanoma = test system: UACC-62 melanoma
# IGROV1 ovarian = test system: IGROV1 ovarian
# NCI/ADR-RES ovarian = test system: NCI/ADR-RES ovarian
# RXF 393 renal = test system: RXF 393 renal
# UO-31 renal = test system: UO-31 renal
compound,measurement,setting,value
Cc1cccc(C)c1NC(=O)/C=C/c1ccccc1,TGI,786-0 renal,> 100 µM
same,TGI,A498 renal,> 100 µM
same,TGI,A549 NSCLC,> 100 µM
same,TGI,ACHN renal,> 100 µM
same,TGI,BT-549 breast,> 100 µM
same,TGI,CAKI-1 renal,> 100 µM
same,TGI,CCRF-CEM leukemia,> 100 µM
same,TGI,COLO 205 colon,> 100 µM
same,TGI,DU-145 prostate,> 100 µM
same,TGI,EKVX NSCLC,> 100 µM
same,TGI,HCC-2998 colon,> 100 µM
same,TGI,HCT-116 colon,> 100 µM
same,TGI,HCT-15 colon,> 100 µM
same,TGI,HL-60(TB) leukemia,> 100 µM
same,TGI,HOP-62 NSCLC,> 100 µM
same,TGI,HS 578T breast,> 100 µM
same,TGI,HT29 colon,> 100 µM
same,TGI,K-562 leukemia,> 100 µM
same,TGI,KM12 colon,> 100 µM
same,TGI,LOX IMVI melanoma,> 100 µM
same,TGI,M14 melanoma,> 100 µM
same,TGI,MALME-3M melanoma,> 100 µM
same,TGI,MCF7 breast,> 100 µM
same,TGI,MDA-MB-231 breast,> 100 µM
same,TGI,MDA-MB-435,> 100 µM
same,TGI,MDA-N,> 100 µM
same,TGI,MOLT-4 leukemia,> 100 µM
same,TGI,NCI-H226 lung,> 100 µM
same,TGI,NCI-H23 lung,> 100 µM
same,TGI,NCI-H460 lung,> 100 µM
same,TGI,NCI-H522 lung,> 100 µM
same,TGI,OVCAR-3 ovarian,> 100 µM
same,TGI,OVCAR-4 ovarian,> 100 µM
same,TGI,OVCAR-5 ovarian,> 100 µM
same,TGI,OVCAR-8 ovarian,> 100 µM
same,TGI,PC-3 prostate,> 100 µM
same,TGI,RPMI-8226 leukemia,> 100 µM
same,TGI,SF-268 CNS,> 100 µM
same,TGI,SF-295 CNS,> 100 µM
same,TGI,SF-539 CNS,> 100 µM
same,TGI,SK-MEL-2 melanoma,> 100 µM
same,TGI,SK-MEL-28 melanoma,> 100 µM
same,TGI,SK-MEL-5 melanoma,> 100 µM
same,TGI,SK-OV-3 ovarian,> 100 µM
same,TGI,SN12C renal,> 100 µM
same,TGI,SNB-19 CNS,> 100 µM
same,TGI,SNB-75 CNS,> 100 µM
same,TGI,SR leukemia,> 100 µM
same,TGI,SW-620 colon,> 100 µM
same,TGI,T-47D breast,> 100 µM
same,TGI,TK-10 renal,> 100 µM
same,TGI,U251 CNS,> 100 µM
same,TGI,UACC-257 melanoma,> 100 µM
same,TGI,UACC-62 melanoma,> 100 µM
COc1ccc2c(N=[N+]=[N-])c(-c3ccccc3)c(=O)oc2c1,TGI,786-0 renal,> 100 µM
same,TGI,A498 renal,> 100 µM
same,TGI,A549 NSCLC,> 100 µM
same,TGI,ACHN renal,> 100 µM
same,TGI,BT-549 breast,> 100 µM
same,TGI,CAKI-1 renal,> 100 µM
same,TGI,CCRF-CEM leukemia,> 100 µM
same,TGI,COLO 205 colon,> 100 µM
same,TGI,DU-145 prostate,> 100 µM
same,TGI,EKVX NSCLC,> 100 µM
same,TGI,HCC-2998 colon,> 100 µM
same,TGI,HCT-116 colon,> 100 µM
same,TGI,HCT-15 colon,> 100 µM
same,TGI,HL-60(TB) leukemia,60.3 µM
same,TGI,HOP-62 NSCLC,> 100 µM
same,TGI,HS 578T breast,> 100 µM
same,TGI,HT29 colon,> 100 µM
same,TGI,IGROV1 ovarian,> 100 µM
same,TGI,K-562 leukemia,> 100 µM
same,TGI,KM12 colon,> 100 µM
same,TGI,LOX IMVI melanoma,> 100 µM
same,TGI,M14 melanoma,> 100 µM
same,TGI,MALME-3M melanoma,> 100 µM
same,TGI,MCF7 breast,> 100 µM
same,TGI,MDA-MB-231 breast,> 100 µM
same,TGI,MDA-MB-435,> 100 µM
same,TGI,MDA-N,> 100 µM
same,TGI,MOLT-4 leukemia,73.1 µM
same,TGI,NCI-H23 lung,> 100 µM
same,TGI,NCI-H460 lung,> 100 µM
same,TGI,NCI-H522 lung,> 100 µM
same,TGI,OVCAR-8 ovarian,> 100 µM
same,TGI,PC-3 prostate,> 100 µM
same,TGI,RPMI-8226 leukemia,> 100 µM
same,TGI,SF-268 CNS,> 100 µM
same,TGI,SF-295 CNS,> 100 µM
same,TGI,SF-539 CNS,> 100 µM
same,TGI,SK-MEL-28 melanoma,> 100 µM
same,TGI,SK-MEL-5 melanoma,77.3 µM
same,TGI,SK-OV-3 ovarian,> 100 µM
same,TGI,SN12C renal,> 100 µM
same,TGI,SNB-75 CNS,> 100 µM
same,TGI,SR leukemia,67.1 µM
same,TGI,SW-620 colon,> 100 µM
same,TGI,T-47D breast,> 100 µM
same,TGI,TK-10 renal,> 100 µM
same,TGI,UACC-257 melanoma,85.6 µM
same,TGI,UACC-62 melanoma,> 100 µM
CC1=C(C(=O)OCCc2ccc([N+](=O)[O-])cc2)C(c2cccc([N+](=O)[O-])c2)C(C(=O)OC(C)C)=C(C)N1 (stereo unspecified),TGI,786-0 renal,> 100 µM
same,TGI,A549 NSCLC,> 100 µM
same,TGI,ACHN renal,> 100 µM
same,TGI,BT-549 breast,> 100 µM
same,TGI,CAKI-1 renal,> 100 µM
same,TGI,CCRF-CEM leukemia,> 100 µM
same,TGI,COLO 205 colon,> 100 µM
same,TGI,DU-145 prostate,> 100 µM
same,TGI,EKVX NSCLC,> 100 µM
same,TGI,HCC-2998 colon,> 100 µM
same,TGI,HCT-116 colon,> 100 µM
same,TGI,HCT-15 colon,> 100 µM
same,TGI,HOP-62 NSCLC,> 100 µM
same,TGI,HS 578T breast,> 100 µM
same,TGI,HT29 colon,> 100 µM
same,TGI,IGROV1 ovarian,> 100 µM
same,TGI,K-562 leukemia,> 100 µM
same,TGI,KM12 colon,> 100 µM
same,TGI,LOX IMVI melanoma,> 100 µM
same,TGI,M14 melanoma,> 100 µM
same,TGI,MALME-3M melanoma,> 100 µM
same,TGI,MCF7 breast,> 100 µM
same,TGI,MDA-MB-435,> 100 µM
same,TGI,MDA-N,> 100 µM
same,TGI,MOLT-4 leukemia,> 100 µM
same,TGI,NCI-H226 lung,> 100 µM
same,TGI,NCI-H23 lung,> 100 µM
same,TGI,NCI-H460 lung,> 100 µM
same,TGI,NCI-H522 lung,7.71 µM
same,TGI,NCI/ADR-RES ovarian,> 100 µM
same,TGI,OVCAR-3 ovarian,> 100 µM
same,TGI,OVCAR-4 ovarian,> 100 µM
same,TGI,OVCAR-5 ovarian,> 100 µM
same,TGI,OVCAR-8 ovarian,> 100 µM
same,TGI,PC-3 prostate,> 100 µM
same,TGI,RXF 393 renal,> 100 µM
same,TGI,SF-268 CNS,> 100 µM
same,TGI,SF-295 CNS,> 100 µM
same,TGI,SF-539 CNS,> 100 µM
same,TGI,SK-MEL-2 melanoma,> 100 µM
same,TGI,SK-MEL-28 melanoma,> 100 µM
same,TGI,SK-MEL-5 melanoma,7.25 µM
same,TGI,SK-OV-3 ovarian,> 100 µM
same,TGI,SN12C renal,> 100 µM
same,TGI,SNB-19 CNS,> 100 µM
same,TGI,SNB-75 CNS,76.7 µM
same,TGI,SR leukemia,> 100 µM
same,TGI,SW-620 colon,> 100 µM
same,TGI,T-47D breast,> 100 µM
same,TGI,TK-10 renal,> 100 µM
same,TGI,U251 CNS,> 100 µM
same,TGI,UACC-257 melanoma,> 100 µM
same,TGI,UACC-62 melanoma,> 100 µM
same,TGI,UO-31 renal,> 100 µM
